This is an account of results in PubChem BioAssay (NCI).

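Cells were grown in 96-well plates and exposed to each compound for 48 hours at five concentrations; endpoints were interpolated linearly between bracketing concentrations, or set to the highest concentration if not reached. TGI is the concentration that stops growth completely.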

What all share (assay): growth of human tumour cells (NCI), 48 h
Assay [1] concerns OVCAR-5 ovarian.
The test system of assay [2] is T-47D breast.
Assay [3] concerns SF-295 CNS.
The test system of assay [4] is MDA-MB-231 breast.
Assay [5] deals with NCI-H226 lung.
Assay [6] deals with HS 578T breast.
In assay [7] the test system is IGROV1 ovarian.
The subject of assay [8] is 786-0 renal.
For assay [9], the system named is SW-620 colon.
Assay [10] deals with NCI-H522 lung.

In the case of `CN(C)C=Nc1nncc2n[nH]nc12`, the TGI in [1], in assay [2], in [3], in assay [4], in assay [5] and in assay [6] was over 100 µM each time. The TGI in [7], in [8] and in [9] was over 100 µM in each case.
In the case of `COC(=O)c1c(C#C[Si](C)(C)C)c(C#C[Si](C)(C)C)c(C#C[Si](C)(C)C)c(C#C[Si](C)(C)C)c1C(=O)OC`, the TGI in assay [1], in assay [2], in assay [3], in assay [4], in assay [5] and in assay [6] was over 100 µM in each case. Also, the TGI in assay [7], in assay [10], in assay [8] and in [9] was over 100 µM in each case.
`COC(=O)C[C@H](CCSC)NC(=O)C[C@H](CCSC)NC(=O)C[C@H](CCSC)NC(=O)OC(C)(C)C`: the TGI in assay [1] is over 100 µM; in assay [2], over 100 µM; in [3], 51.4 µM; in [4], over 100 µM; in [5] it was over 100 µM; in [6] it was over 100 µM. In addition, the TGI in assay [7], in [10], in assay [8] and in assay [9] was over 100 µM in each case.
In the case of `Nc1ccc(-c2nc3ccccc3s2)cc1`, the TGI in [1] was 36.5 µM; in [2], 65.5 µM; in assay [3], over 74.9 µM; in assay [4] it was 31.9 µM; in assay [5] it was 49 µM; in [6], over 84 µM. The TGI in assay [7] was determined as 48.7 µM; in assay [10], 40.1 µM; in assay [8] it was 29.7 µM; in assay [9], 41.1 µM.
Regarding `COC(=O)[C@@H]1O[C@]12[C@@H](CO[Si](C)(C)C(C)(C)C)O[C@@H](n1cc(C)c(=O)[nH]c1=O)[C@@H]2O[Si](C)(C)C(C)(C)C`, the TGI in [1] is 36.6 µM; in assay [2], 27.3 µM; in assay [3], 49.7 µM; in assay [4], 54.8 µM; in [5] it was 45.5 µM; in [6], 42.5 µM. Also, the TGI in assay [7] came to 21.6 µM; in assay [10] it was 30.1 µM; in assay [9] it was 27.9 µM.
For the molecule `C=C1C(=O)O[C@H]2C/C(C=O)=C\[C@H]3O[C@H]3/C(COC(=O)C(C)C)=C/CC12` (stereo partly drawn), the TGI in assay [1] stood at 7.48 µM; in assay [2], 7 µM; in assay [3], 75.5 µM; in [4], 17.3 µM; in assay [5], 51.1 µM; in assay [6], 22 µM. For the same molecule, the TGI worked out at 18.5 µM in [7], 10.5 µM in assay [10], 10.7 µM in [8] and 6.87 µM in [9].
For the molecule `CCOC(=O)c1cc(-c2ccn(C(C)=O)c2)c(-c2cc(C)co2)[nH]1`, the TGI in [1], in assay [2], in assay [3], in [4], in assay [5] and in assay [6] was over 100 µM in each case. For the same molecule, the TGI in [7], in assay [10], in assay [8] and in assay [9] was over 100 µM throughout.
In the case of `O=C(NCc1cccnc1)C(=O)NCc1cccnc1`, the TGI in [1], in [2], in assay [3], in assay [4], in assay [5] and in assay [6] was over 100 µM in each case. Further, the TGI in [7], in [10], in assay [8] and in assay [9] was over 100 µM throughout.
As for `CSc1ccccc1P(CCP(c1ccccc1SC)c1ccccc1SC)c1ccccc1SC`, the TGI in [1] was over 100 µM; in [2], over 100 µM; in assay [3], over 95.7 µM; in assay [4], over 100 µM; in [5], over 45.2 µM; in [6], over 100 µM. The TGI in assay [7], in assay [10], in assay [8] and in assay [9] was over 100 µM in each case.
`C=CCn1c(=O)c2ccccc2[n+]2c(-c3cccc([N+](=O)[O-])c3)csc12`: the TGI is over 100 µM in assay [1]; 72.8 µM in assay [2]; over 100 µM in [3]; over 100 µM in assay [4]; over 100 µM in assay [5]; over 100 µM in assay [6]. In addition, the TGI in assay [7], in assay [10], in [8] and in assay [9] was over 100 µM in each case.
On to `CC1(C)Oc2ccc3c(=O)c4ccccc4oc3c2C1C(=O)O` (stereo not drawn), for which the TGI in [1], in assay [2], in [3], in assay [4], in assay [5] and in [6] was over 100 µM in each case. The TGI in [7], in assay [10] and in [8] was over 100 µM throughout.
Consider `O=C(O)CCCc1ccc2c(c1)CC1(C2)Cc2ccc(CCCC(=O)O)cc2C1`, for which the TGI in [1], in assay [2], in assay [3], in [4], in [5] and in assay [6] was over 100 µM in each case. For the same molecule, the TGI in [7], in [10] and in assay [8] was over 100 µM each time.
Turning to `O=C(C=P(c1ccccc1)(c1ccccc1)c1ccccc1)c1ccc(-c2ccc(F)cc2F)cc1`, the TGI in assay [1] amounted to 9.29 µM; in [2], 7.58 µM; in assay [3], 9.87 µM; in assay [4], 4.92 µM; in [5], 7.16 µM; in [6] it was 28.3 µM. The values for the TGI in assay [8] and in assay [9] were 13.7 µM and 14.9 µM, respectively.
`CSC1NNC2(C(=O)N1)c1ccccc1-c1ccccc12` (stereo not drawn): the TGI in [2], in assay [3], in [4], in [5], in assay [6] and in [7] was over 10 µM throughout. Besides, the TGI in assay [10], in assay [8] and in [9] was over 10 µM in each case.
